In series [1] the test system is Corn Earworm (CEW) (Helicoverpa zea). The experiment in a line: Bioassay on corn earworm (CEW), 128-well diet tray assay. The following applies: Helicoverpa zea; corn earworm, 50 μg/cm^2; read-out: % Mortality CEW 50 μg/cm^2. Type of series: in vivo. In short, it runs like this:
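Larvae in a 128-well diet tray were held at 25° C under 14:10 light-dark for five to seven days. Percent mortality was scored per well and averaged over eight wells, then reported on a rating scale.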

For series [2], the system named is Beet Armyworm (BAW) (Spodoptera exigua). The experiment in a line: Bioassay on beet armyworm (BAW), 128-well diet tray assay. It counts as in vivo. The following applies: Spodoptera exigua; beet armyworm, 50 μg/cm^2; read-out: % Mortality BAW 50 μg/cm^2.
The subject of series [3] is Green Peach Aphid (GPA) (Myzus persicae). The experiment in a line: Bioassay on green peach aphid (GPA), foliar spray on cabbage seedlings. The conditions noted are these: green peach aphid, 200 ppm, read-out: % Mortality GPA 200 ppm. It counts as in vivo. In short, it runs like this:
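Cabbage seedlings (2-3 true leaves), each infested a day earlier with 20-50 wingless adult and nymph GPA, were sprayed on both leaf sides to runoff, four pots per treatment. Corrected % control was calculated against solvent-check plants.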

Take `CC(C)c1cc(F)c(F)cc1NC(=S)N/N=C/c1ccc(-c2ncn(-c3ccc(OC(F)(F)F)cc3)n2)cc1` [Compound I-55]: the melting point (in general, the temperature of the solid-liquid transition) fell in the range of 217 to 221 °C.
Compound `Cc1ccc(C(C)C)c(NC(=S)NN)c1` [Compound I-46] gave a melting point of 167 to 169 °C.
Same read-out and setting: under `Cc1cccc(NC(=S)N/N=C/c2ccc(-c3ncn(-c4ccc(OC(F)(F)F)cc4)n3)cc2)c1C(C)C` [Compound I-43] stands 219 to 222 °C.
For `FC(F)(F)Oc1ccc(-n2cnc(-c3ccc(/C=N/NC(=S)Nc4ccccc4C4CCCC4)cc3)n2)cc1` [Compound I-35], the melting point was in the range of 213 to 216 °C.
Still for that read-out and setting: under `CC(C)c1cc(F)ccc1NC(=S)NN` [Compound I-50] stands 163 to 167 °C; under `CC(C)c1cc(F)c(F)cc1NC(=S)NN` [Compound I-54], 169 to 170 °C.
`CS/C(=N\c1ccc(N(C)C)cc1)N/N=C/c1ccc(-c2ncn(-c3ccc(OC(F)(F)F)cc3)n2)cc1` [Compound 1C, N-(4-dimethylaminophenyl)-S-methyl-2-{4-[1-(4-trifluoromethoxyphenyl)-1H-[1,2,4]-triazol-3-yl]-benzylidene}-hydrazine-carbothioamide]: the mortality at 50 µg/cm2 in series [1] and in series [2] was 50 to 100% throughout. For the same compound, the mortality at 200 ppm in series [3] was found to be 0%.
As for `Cc1cccc(C)c1/N=C(/N/N=C/c1ccc(-c2ncn(-c3ccc(OC(F)(F)F)cc3)n2)cc1)SCc1ccc(S(N)(=O)=O)cc1` [Compound 13C], the mortality at 50 µg/cm2 in series [1] and in series [2] was 50 to 100% throughout. Further, the mortality at 200 ppm in series [3] was 0 to 80%.
Take `COC(=O)c1ccc(CS/C(=N\c2c(C)cccc2C)N/N=C/c2ccc(-c3ncn(-c4ccc(OC(F)(F)F)cc4)n3)cc2)cc1` [Compound 12C]: the mortality at 50 µg/cm2 in series [1] and in series [2] was 50 to 100% in each case. Also, the mortality at 200 ppm in series [3] is 0 to 80%.
As to `Cc1cccc(C)c1/N=C(/N/N=C/c1ccc(-c2ncn(-c3ccc(OC(F)(F)F)cc3)n2)cc1)SCc1cccc2nsnc12` [Compound 14C], the mortality at 50 µg/cm2 in series [1] and in series [2] was 50 to 100% throughout. Further, the mortality at 200 ppm in series [3] is 0 to 80%.
As for `Cc1ccccc1N1/C(=N/N=C/c2ccc(-c3ncn(-c4ccc(OC(F)(F)F)cc4)n3)cc2)SCC1C` (stereo not drawn) [Compound 154C], the mortality at 50 µg/cm2 in series [1] and in series [2] was 50 to 100% in each case. Besides, the mortality at 200 ppm in series [3] was in the range of 0 to 80%.
For `Cc1cccc(C)c1/N=C(/N/N=C/c1ccc(-c2ncn(-c3ccc(OC(F)(F)F)cc3)n2)cc1)SCOC(=O)CNC(=O)OC(C)(C)C` [Compound 30C], the mortality at 50 µg/cm2 in series [1] and in series [2] was 50 to 100% throughout. Moreover, in series [3], the mortality at 200 ppm is 0 to 80%.
As for `Cc1cccc(Cl)c1N1C(=O)CS/C1=N\N=C\c1ccc(-c2ncn(-c3ccc(OC(F)(F)F)cc3)n2)cc1` [Compound 93C], the mortality at 50 µg/cm2 in series [1] and in series [2] was 50 to 100% each time. Also, in series [3], the mortality at 200 ppm is 0%.
In the case of `Cc1cccc(C)c1-n1c(-c2cc(-c3ccc(Cl)cc3)no2)cs/c1=N\N=C\c1ccc(-c2ncn(-c3ccc(OC(F)(F)F)cc3)n2)cc1` [Compound 76C], the mortality at 50 µg/cm2 in series [1] and in series [2] was 50 to 100% each time. Also, the mortality at 200 ppm in series [3] lay in the range of 0 to 80%.
With `Cc1cccc(C)c1/N=C(/N/N=C/c1ccc(-c2ncn(-c3ccc(OC(F)(F)F)cc3)n2)cc1)SCc1ccc(C(=O)O)cc1` [Compound 6C], the mortality at 50 µg/cm2 in series [1] and in series [2] was 50 to 100% each time. Also, the mortality at 200 ppm in series [3] is 0%.
With `Cc1cccc(C)c1N1CCCS/C1=N\N=C\c1ccc(-c2ncn(-c3ccc(OC(F)(F)F)cc3)n2)cc1` [Compound 182C], the mortality at 50 µg/cm2 in series [1] and in series [2] was 50 to 100% each time. In addition, in series [3], the mortality at 200 ppm is 0 to 80%.
With `Cc1cccc(C)c1/N=C(/N/N=C/c1ccc(-c2ncn(-c3ccc(OC(F)(F)F)cc3)n2)cc1)SCOC(=O)C(C)C` [Compound 25C], the mortality at 50 µg/cm2 in series [1] and in series [2] was 50 to 100% throughout. The mortality at 200 ppm in series [3] came out at 0%.
`Cc1ccccc1N1CCCS/C1=N\N=C\c1ccc(-c2ncn(-c3ccc(OC(F)(F)F)cc3)n2)cc1` [Compound 195C]: the mortality at 50 µg/cm2 in series [1] and in series [2] was 50 to 100% in each case. Besides, the mortality at 200 ppm in series [3] was 0 to 80%.
In the case of `COc1ccc(N2CCCS/C2=N\N=C\c2ccc(-c3ncn(-c4ccc(OC(F)(F)F)cc4)n3)cc2)cc1` [Compound 202C], the mortality at 50 µg/cm2 in series [1] and in series [2] was 50 to 100% each time. Besides, the mortality at 200 ppm in series [3] was 0 to 80%.

The record behind these values is US8916183B2, “Pesticidal compositions and processes related thereto” (priority 2012, dated 2014).
